This is an account of results in ChEMBL document CHEMBL5226326, “Discovery of 1-Benzoyl 4-Phenoxypiperidines as Small-Molecule Inhibitors of the β-Catenin/B-Cell Lymphoma 9 Protein-Protein Interaction” (J Med Chem, 2021).

Assay [1] can be described thus: Inhibition of full length beta-catenin E155A mutant/N-terminal biotinylated human BCL9 HD2 (350 to 375 residues) protein-protein interaction in human SW480 cells incubated for 1 hr by Alphascreen assay. Type of assay: cell-based.
Assay [2] in a line: Inhibition of Wnt/beta-catenin transactivation signalling in human HEK293 cells transfected with TOPFlash reporter gene incubated for 24 hrs by TOPFlash luciferase assay. Type of assay: cell-based. The note with it: HEK293, 24 h. (In a reporter assay the amount or activity of a reporter protein is the signal.)
Assay [3] is described as follows: Inhibition of Wnt/beta-catenin transactivation signalling in human SW480 cells transfected with renilla luciferase and TOPFlash reporter gene incubated for 24 hrs by dual-luciferase assay. Type of assay: cell-based. The note with it: SW480, 24 h.
For assay [4], the target named is T1, Catenin beta-1/Cadherin-1 (Homo sapiens, UniProt P35222).
T1 sequence (P35222 whole entry): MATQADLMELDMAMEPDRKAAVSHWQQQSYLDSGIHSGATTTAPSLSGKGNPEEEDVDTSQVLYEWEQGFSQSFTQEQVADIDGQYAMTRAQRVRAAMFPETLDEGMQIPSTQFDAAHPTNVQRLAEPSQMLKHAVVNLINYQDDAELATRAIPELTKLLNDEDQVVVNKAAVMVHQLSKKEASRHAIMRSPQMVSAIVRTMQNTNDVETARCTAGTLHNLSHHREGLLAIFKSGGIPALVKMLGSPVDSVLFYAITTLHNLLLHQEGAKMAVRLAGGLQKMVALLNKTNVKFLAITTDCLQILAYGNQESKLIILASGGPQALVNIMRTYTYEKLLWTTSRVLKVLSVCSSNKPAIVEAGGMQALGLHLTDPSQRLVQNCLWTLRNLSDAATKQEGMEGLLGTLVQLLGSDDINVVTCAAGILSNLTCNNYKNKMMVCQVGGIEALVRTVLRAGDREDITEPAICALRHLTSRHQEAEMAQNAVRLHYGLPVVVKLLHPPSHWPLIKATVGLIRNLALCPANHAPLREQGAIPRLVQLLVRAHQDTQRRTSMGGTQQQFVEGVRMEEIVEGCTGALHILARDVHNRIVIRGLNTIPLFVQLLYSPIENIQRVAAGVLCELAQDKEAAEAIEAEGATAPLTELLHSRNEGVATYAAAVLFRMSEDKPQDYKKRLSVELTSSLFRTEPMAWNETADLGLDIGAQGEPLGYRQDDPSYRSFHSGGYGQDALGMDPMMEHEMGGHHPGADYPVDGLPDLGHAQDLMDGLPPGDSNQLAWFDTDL
T1 sequence (P12830 whole entry): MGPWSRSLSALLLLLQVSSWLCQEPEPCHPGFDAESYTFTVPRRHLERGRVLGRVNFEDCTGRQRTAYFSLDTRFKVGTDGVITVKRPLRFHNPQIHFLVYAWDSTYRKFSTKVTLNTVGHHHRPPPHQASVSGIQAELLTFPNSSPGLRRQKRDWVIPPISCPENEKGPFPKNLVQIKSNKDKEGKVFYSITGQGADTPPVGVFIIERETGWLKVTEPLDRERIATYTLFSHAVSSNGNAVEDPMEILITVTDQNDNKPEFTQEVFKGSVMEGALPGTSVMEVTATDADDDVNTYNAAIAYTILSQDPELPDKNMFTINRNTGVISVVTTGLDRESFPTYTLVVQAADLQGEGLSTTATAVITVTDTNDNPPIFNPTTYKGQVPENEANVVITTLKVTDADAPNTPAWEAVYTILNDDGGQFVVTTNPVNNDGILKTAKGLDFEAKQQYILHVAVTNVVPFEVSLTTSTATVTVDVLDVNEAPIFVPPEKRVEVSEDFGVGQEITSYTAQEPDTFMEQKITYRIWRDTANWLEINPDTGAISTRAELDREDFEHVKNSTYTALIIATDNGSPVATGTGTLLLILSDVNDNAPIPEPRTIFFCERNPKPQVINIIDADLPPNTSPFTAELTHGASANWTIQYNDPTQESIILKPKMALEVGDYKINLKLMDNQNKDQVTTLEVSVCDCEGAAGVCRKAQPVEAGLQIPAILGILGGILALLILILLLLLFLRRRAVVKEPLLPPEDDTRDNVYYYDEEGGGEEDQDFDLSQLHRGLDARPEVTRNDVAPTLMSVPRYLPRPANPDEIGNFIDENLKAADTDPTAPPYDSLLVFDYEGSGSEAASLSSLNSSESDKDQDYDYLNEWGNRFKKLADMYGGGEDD
Briefly: Inhibition of full length beta-catenin (1 to 686 residues) (unknown origin) expressed in Escherichia coli BL21 (DE3)/N-terminal biotinylated human E-cadherin (824 to 877 residues) protein-protein interaction assessed as inhibition constant incubated for 2 hr by Alphascreen assay. (Alpha assays give light when donor and acceptor beads are brought close together.)

In another assay the test system is SW480. Briefly: Antiproliferative activity against beta-catenin signalling overexpressing human SW480 cells assessed as reduction in cell growth incubated for 72 hrs by MTS assay. It counts as functional, cell-based. The note with it: SW480, 72 h. For orientation: Tetrazolium dyes change colour on reduction, which living cells bring about.
Assay [5] addresses T1, Catenin beta-1/Cadherin-1. Briefly: Inhibition of full length beta-catenin (1 to 686 residues) (unknown origin) expressed in Escherichia coli BL21 (DE3)/N-terminal biotinylated human E-cadherin (824 to 877 residues) protein-protein interaction incubated for 2 hr by fluorescence anisotropy binding assay.
Assay [6] addresses T1, Catenin beta-1/Cadherin-1. Briefly: Inhibition of full length beta-catenin (1 to 686 residues) (unknown origin) expressed in Escherichia coli BL21 (DE3)/N-terminal biotinylated human E-cadherin (824 to 877 residues) protein-protein interaction incubated for 2 hr by Alphascreen assay.

In general, Ki refers to the dissociation constant of the complex between target and ligand, obtained from inhibition or displacement. Broadly, the IC50 is the point on the concentration scale where inhibition reaches its midpoint. As a reminder, the Kd is a measure of binding affinity in units of concentration. Read a high Kd as lower affinity. `CC(C)(C)C1CCC(c2cc(C(=O)N3CCC(Oc4cc(N5CCNCC5)ccc4C#N)CC3)ccc2O[C@H]2CCNC2)CC1.Cl.Cl` (mixture of isomers; cis): the inhibitory constant (Ki) came to 3.6 µM in assay [1] and 19 µM in assay [4]. For the same compound, the figures for the half-inhibitory concentration (IC50) (in assay [2]; in assay [3]; in the assay with SW480) were 5.7 µM, 2.6 µM and 6.2 µM, respectively. Also, the dissociation constant (Kd) is 67 µM in assay [5] and 80 µM in assay [6].
